Read-outs that look alike come from different tables or passages of the source.
How the values were obtained:
[1] = Ligand partition coefficient between polar solvent and hexane; assay type: physicochemical
[2] = Aldehyde partition coefficient between nonpolar and polar solvent
Protocol: The efficiency of this extraction process can be measured by a partition coefficient Kp of the one or more products which is defined as follows: [formula]
The vial was shaken vigorously, then allowed to settle. An aliquot from both phases was removed and analyzed for aldehyde via GC. Table H indicates the partition coefficient, which was determined by the ratio of the GC area for the aldehydes (sum of n and iso) in the nonpolar phase to the polar phase.
In this case, the aldehyde contained iso-heptadecanal, n-heptadecanal, and a small amount of C16 alkenes and alkanes. Table H indicates the partition coefficient.
Table H indicates the partition coefficient.
Table H indicates partition coefficient.

[3] = Kpartition in hydroformylation catalyst mixture extracted with hexane (layers analyzed for rhodium); assay type: physicochemical; conditions: acetonitrile catalyst solution after 1-dodecene hydroformylation, 74° C, equal volume hexane
Protocol: To this solution was then charged 5 milliliters of 1-dodecene. The solution was stirred and allowed to equilibrate until no increase in pressure was observed. The reactor was then pressurized to 100 psig with H2 :CO (1:1). Pressure was maintained between 100 and 95 psig until no further reaction had occurred. At this point, the catalyst containing solution was discharged from the reactor. 1.5 milliliters of the catalyst solution was transferred to a vial. To this was added 1.5 milliliters of hexane. The mixture was vigorously shaken for several minutes, then allowed to settle and phase separate. The layers were then separated and analyzed for rhodium content.

[4] = acetonitrile/hexane, ambient temperature
[5] = summary table, acetonitrile and hexane
[6] = 3-methyl-2-oxazolidinone/hexane, ambient temperature
[7] = DMF/hexane, ambient temperature
[8] = DMSO/hexane, ambient temperature
[9] = adiponitrile/hexane, ambient temperature
[10] = caprolactone/hexane, ambient temperature
[11] = 2,2-dimethylbutane/acetonitrile

| Compound | Kpartition [1, 4] | Kpartition [1, 5] | other results |
| --- | --- | --- | --- |
| c1ccc(-c2ccccc2Op2oc3ccccc3c3ccccc3o2)c(Op2oc3ccccc3c3ccccc3o2)c1 [Ligand M] | 25 | 25 |  |
| c1ccc(P(c2ccccc2)c2ccccc2)cc1 [TPP, triphenylphosphine, reference compound] | 1.3 | 1.3 | Kpartition [1, 6]: 4.3; Kpartition [1, 7]: 5.9; Kpartition [1, 8]: 2.3; Kpartition [1, 9]: 0.4; Kpartition [1, 10]: 3 |
| C1CCC(P(C2CCCCC2)C2CCCCC2)CC1 [TCHP, tricyclohexylphosphine, reference compound] | 0.2 | < 0.2 |  |
| O=P(CCP(c1ccccc1)c1ccccc1)(c1ccccc1)c1ccccc1 [Ligand D] | 920 | 920 | Kpartition [1, 7]: 60; Kpartition [1, 8]: 440; Kpartition [1, 10]: 80 |
| CCCCCCCCCCCC=O [dodecanal] |  |  | Kpartition (nonpolar to polar phase) [2, 11]: 4.6; Kpartition (nonpolar to polar phase) ([2]; heptane/acetonitrile): 4.4 |
| CCCCCCCCCCCCCCCCC=O [heptadecanal] |  |  | Kpartition (nonpolar to polar phase) ([2]; hexane/acetonitrile): 5.5 |
| O=P(CP(c1ccccc1)c1ccccc1)(c1ccccc1)c1ccccc1 [Ligand E] | 80 | 620 | Kpartition [1, 7]: 50; Kpartition [1, 8]: 620 |
| CCCCCCCCCCCCC=O [tridecanal] |  |  | Kpartition (nonpolar to polar phase) ([2]; 1-dodecene/acetonitrile): 4.3 |
| c1ccc(P(c2ccccc2)C2CCCCC2)cc1 [CHDPP, cyclohexyldiphenylphosphine, reference compound] | 0.5 | 0.4 | Kpartition [1, 6]: 1.2; Kpartition [1, 7]: 2; Kpartition [1, 8]: 0.5; Kpartition [1, 9]: 0.4 |
| CCCCCCCCCCC=O [undecanal] |  |  | Kpartition (nonpolar to polar phase) ([2]; 1-decene/acetonitrile): 2.3; Kpartition (nonpolar to polar phase) [2, 11]: 3.3; Kpartition (nonpolar to polar phase) ([2]; cyclohexane/acetonitrile): 2.0; Kpartition (nonpolar to polar phase) ([2]; hexane/3-methyl-2-oxazolidinone): 2.6; Kpartition (nonpolar to polar phase) ([2]; nonane/acetonitrile): 1.9 |
| N#CCCP(CCC#N)CCC#N [Ligand F] | > 100 | > 100 |  |
| CCCCCCCCCCCCCCP(c1ccc(C#N)cc1)c1ccc(C#N)cc1 [Ligand I] | 7 | 7 |  |
| COc1cc(-c2cc(OC)cc(C(C)(C)C)c2Op2oc3ccc(OC)cc3c3cc(OC)ccc3o2)c(Op2oc3ccc(OC)cc3c3cc(OC)ccc3o2)c(C(C)(C)C)c1 [Ligand S] | greater than 100 |  |  |
| COc1cc(C(C)(C)C)c2op(Oc3ccccc3C#N)oc3c(C(C)(C)C)cc(OC)cc3c2c1 [Ligand O] | 5.2 | 5.2 |  |
| COc1cc(C(C)(C)C)c2op(Oc3ccc([N+](=O)[O-])cc3)oc3c(C(C)(C)C)cc(OC)cc3c2c1 [Ligand Q] | 5.3 | 5.3 |  |
| CCCCCCCCCCCCCCC=O [pentadecanal] |  |  | Kpartition (nonpolar to polar phase) ([2]; hexane/acetonitrile): 6.8 |
| N#Cc1cccc(P(c2cccc(C#N)c2)c2cccc(C#N)c2)c1 [Ligand B] | 470 | 470 | Kpartition [1, 7]: 470; Kpartition [1, 8]: 550; Kpartition [1, 10]: 960 |
| COc1ccc(P(c2ccc(OC)cc2)c2ccc(OC)cc2)cc1 [Ligand G] | 11 | 11 |  |
| CCCCCCCCP(CCCCCCCC)CCCCCCCC [TOP, tri-n-octylphosphine, reference compound] | < 0.01 | < 0.01 |  |
| N#Cc1ccc(P(c2ccc(C#N)cc2)c2ccc(C#N)cc2)cc1 [Ligand A] | 430 | 430 | Kpartition [1, 6]: > 1000; Kpartition [1, 7]: > 1000; Kpartition [1, 8]: > 1000; Kpartition [1, 9]: > 1000; Kpartition [1, 10]: > 1000 |
| O=[N+]([O-])c1ccc(Op2oc3ccccc3c3ccccc3o2)cc1 [Ligand R] | 22 | 22 | Kpartition in catalyst mixture [3]: 5.3 |
| N#Cc1cccc(Op2oc3ccccc3c3ccccc3o2)c1 [Ligand N] | 28 | 28 |  |
| OCCCP(c1ccccc1)c1ccccc1 [Ligand J] | 26 | 26 |  |
| N#Cc1ccc(Op2oc3ccccc3c3ccccc3o2)cc1 [Ligand P] | 30 | 30 |  |
| N#CCCP(CCC#N)c1ccccc1 [Ligand L] | > 100 |  | Kpartition [1]: > 100 |
